In PubChem BioAssay (NCI):
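Values below derive from 48-hour exposures of cells grown in 96-well plates, with endpoints linearly interpolated between the two concentrations bracketing the appropriate inhibition level. The concentration for 50% growth inhibition is given as GI50. Definition used: TGI = concentration required for complete inhibition of growth.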

Assays:
Assay in all cases: growth of human tumour cells (NCI), 48 h
[1] = test system: DU-145 prostate
[2] = test system: OVCAR-4 ovarian
[3] = test system: NCI-H460 lung
[4] = test system: HS 578T breast
[5] = test system: HL-60(TB) leukemia
[6] = test system: U251 CNS
[7] = test system: MCF7 breast
[8] = test system: EKVX NSCLC
[9] = test system: CCRF-CEM leukemia
[10] = test system: IGROV1 ovarian
[11] = test system: SF-268 CNS
[12] = test system: KM12 colon
[13] = test system: MALME-3M melanoma
[14] = test system: MDA-MB-468 breast
[15] = test system: HCT-15 colon
[16] = test system: A549 NSCLC
[17] = test system: SR leukemia
[18] = test system: HT29 colon
[19] = test system: MDA-MB-231 breast
[20] = test system: SK-MEL-2 melanoma
[21] = test system: MOLT-4 leukemia
[22] = test system: SK-OV-3 ovarian
[23] = test system: BT-549 breast
[24] = test system: MDA-MB-435
[25] = test system: UACC-257 melanoma
[26] = test system: SNB-19 CNS
[27] = test system: SK-MEL-28 melanoma
[28] = test system: OVCAR-3 ovarian
[29] = test system: RXF 393 renal

Structure (SMILES): C=CC(=O)N1CCN(c2ccc3nc4c(nc3c2C(F)(F)F)C(=O)c2ncccc2C4=O)CC1
- TGI [1]: 20 µM
- GI50 [2]: 2.41 µM
- TGI [2]: 6.7 µM
- GI50 [3]: 1.25 µM
- TGI [3]: 3.75 µM
- GI50 [4]: 16.9 µM
- TGI [4]: 56.4 µM
- GI50 [5]: 3.34 µM
- TGI [5]: > 98 µM
- GI50 [6]: 3.11 µM
- TGI [6]: 13.3 µM
- GI50 [7]: 1.77 µM
- TGI [7]: 5.48 µM
- GI50 [8]: 8.45 µM
- TGI [8]: 21.9 µM
- GI50 [9]: 2.99 µM
- TGI [9]: > 98 µM
- GI50 [10]: 2.9 µM
- TGI [10]: 12.3 µM
- GI50 [11]: 7.76 µM
- TGI [11]: 63.6 µM
- GI50 [12]: 4.61 µM
- TGI [12]: 55.3 µM
- GI50 [13]: 1.3 µM
- TGI [13]: 2.67 µM
- GI50 [14]: 1.58 µM
- TGI [14]: 3.67 µM
- GI50 [15]: 2.39 µM
- TGI [15]: 11.9 µM
- GI50 [16]: 3.05 µM
- TGI [16]: 14.7 µM
- GI50 [17]: 3.18 µM
- TGI [17]: > 98 µM
- GI50 [18]: 3.27 µM
- TGI [18]: 11 µM
- GI50 [19]: 2.95 µM
- TGI [19]: 10.7 µM
- GI50 [20]: 3.01 µM
- TGI [20]: 13.2 µM
- GI50 [21]: 3.28 µM
- TGI [21]: 21.2 µM
- GI50 [22]: 19.4 µM
- TGI [22]: 79.6 µM
- GI50 [23]: 7.17 µM
- TGI [23]: 20.3 µM
- GI50 [24]: 1.68 µM
- TGI [24]: 3.21 µM
- GI50 [25]: 1.72 µM
- TGI [25]: 4.16 µM
- GI50 [26]: 5.4 µM
- TGI [26]: 20.1 µM
- GI50 [27]: 10.8 µM
- TGI [27]: 28.2 µM
- GI50 [28]: 2.24 µM
- TGI [28]: 6.35 µM
- GI50 [29]: 3.59 µM
- TGI [29]: 15.8 µM
